In US7868006B2, “Heterocyclic substituted piperazines with CXCR3 antagonist activity” (Schering Corporation, priority 2005, dated 2011):

Target: T1, human CXCR3 (N-delta 4) (Homo sapiens, UniProt P49682)
T1 construct: CD8 leader (N); Flag tag (N); expressed in transfected cells; host or cells: mouse pro-B Ba/F3 cells, stably transfected with pME18Sneo-hCXCR3 (N-delta 4); membrane preparation
T1 sequence (P49682 5-368 limits assumed): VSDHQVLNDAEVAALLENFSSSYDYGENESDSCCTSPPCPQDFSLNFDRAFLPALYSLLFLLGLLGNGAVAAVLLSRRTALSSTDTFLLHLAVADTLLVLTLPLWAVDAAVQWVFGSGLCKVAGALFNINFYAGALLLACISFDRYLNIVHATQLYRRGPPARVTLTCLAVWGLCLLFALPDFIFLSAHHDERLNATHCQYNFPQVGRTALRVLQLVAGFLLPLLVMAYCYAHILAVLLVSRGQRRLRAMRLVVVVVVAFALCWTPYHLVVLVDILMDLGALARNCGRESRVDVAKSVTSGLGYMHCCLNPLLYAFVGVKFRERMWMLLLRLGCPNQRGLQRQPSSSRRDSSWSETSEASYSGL
Assay: Human CXCR3 (N-delta 4) Scintillation Proximity Assay (SPA), [125I] IP-10 binding
Conditions: IC50 rating; Ba/F3-hCXCR3 (N-delta 4) membranes, 25 pM [125I] IP-10; read-out: IC50
Method in brief: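 Membranes from mouse Ba/F3 pro-B cells stably expressing Flag-tagged human CXCR3 (N-delta 4), 2 μg per point, bound to WGA SPA beads. Compound titrations competed with 25 pM [125I] IP-10 for 3 hr at room temperature in HEPES buffer with Ca2+, Mg2+, NaCl, 1.0% BSA; bead-bound radioactivity counted, […] values reported.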

Structure (SMILES) | IC50
CC[C@H]1CN(c2ncc(-c3nc[nH]n3)nc2C)[C@H](C)CN1C1CCN(Cc2ccc(OC(F)(F)F)cc2)CC1 [Compound 148] | < 25 nM
CC[C@H]1CN(c2ncc(C3=NCCN3)nc2C)[C@H](C)CN1C1CCN(Cc2ccc(OC(F)(F)F)cc2)CC1 [Compound 150] | < 25 nM
CC[C@H]1CN(c2ncc(-c3nnc(NC)o3)nc2C)[C@H](C)CN1C1CCN(C(=O)c2ccc(Cl)nc2N)CC1 [Compound 161] | < 25 nM
CC[C@H]1CN(c2ncc(-c3nnc(N)o3)nc2C)[C@H](C)CN1C1CCN(Cc2ccc(OC(F)(F)F)cc2)CC1 [Compound 167] | < 25 nM
CCNc1nnc(-c2cnc(N3C[C@H](CC)N(C4CCN(Cc5ccc(Cl)cc5O)CC4)C[C@H]3C)c(C)n2)o1 [Compound 168] | < 25 nM
CC[C@H]1CN(c2ncc(-c3nnc(N)o3)nc2C)[C@H](C)CN1C1CCN([C@H](C(=O)OC)c2ccc(Cl)cc2)CC1 [Compound 170] | 25 to 100 nM
CCNc1nnc(-c2nc(C)c(N3CCN(C4CCN(C(=O)c5ccc(Cl)nc5N)CC4)[C@@H](CC)C3)nc2N)o1 [Compound 174] | < 25 nM
CCNc1nnc(-c2cnc(N3C[C@H](CC)N(C4CCN(C(CO)c5ccc(F)c(F)c5)CC4)C[C@H]3C)c(C)n2)o1 (stereo partly drawn) [Compound 175] | < 25 nM
CC[C@H]1CN(c2ncc(-c3nnc(N)o3)nc2C)[C@H](C)CN1C1CCN([C@@H](C)c2ccc(OC(F)(F)F)cc2)CC1 [Compound 177] | < 25 nM
CC[C@H]1CN(c2ncc(-c3nnc(N)o3)nc2C)[C@H](C)CN1C1CCN([C@H](C)c2ccc(OC(F)(F)F)cc2)CC1 [Compound 178] | < 25 nM
CCNc1nnc(-c2cnc(N3C[C@H](CC)N(C4CCN(Cc5ccc(F)cc5)CC4)C[C@H]3C)c(C(F)(F)F)n2)o1 [Compound 179] | < 25 nM
CCNc1nnc(-c2cnc(N3C[C@H](CC)N(C4CCN(Cc5ccc(OC(F)(F)F)cc5)CC4)C[C@H]3C)c(C)n2)o1 [Compound 185] | < 25 nM
CC[C@H]1CN(c2ncc(-c3nnc(NC4(C)CC4)o3)nc2C)[C@H](C)CN1C1CCN(C(=O)c2ccc(Cl)nc2N)CC1 [Compound 186] | < 25 nM
CCNc1nnc(-c2cnc(N3C[C@H](CC)N(C4CCN(C(C(=O)OC)c5ccc(F)c(F)c5)CC4)C[C@H]3C)c(C)n2)o1 (stereo partly drawn) [Compound 188] | < 25 nM
CCNc1nnc(-c2cnc(N3C[C@H](CC)N(C4CCN(C(=O)c5ccc(C(F)(F)F)nc5N)CC4)C[C@H]3C)c(C)n2)o1 [Compound 189] | < 25 nM
CC[C@H]1CN(c2nc(N)c(-c3nnc(NC)o3)nc2Cl)CCN1C1CCN(C(C(=O)OC)c2ccc(Cl)cc2)CC1 (stereo partly drawn) [Compound 190] | < 25 nM
CCOC(=O)CNc1nnc(-c2nc(C)c(N3CCN(C4CCN(C(=O)c5ccc(Cl)nc5N)CC4)[C@@H](CC)C3)nc2N)o1 [Compound 192] | < 25 nM
CC[C@H]1CN(c2nc(N)c(-c3nnc(NCC(=O)NC)o3)nc2C)CCN1C1CCN(C(=O)c2ccc(Cl)nc2N)CC1 [Compound 193] | < 25 nM
CC[C@H]1CN(c2nc(N)c(-c3nnc(NCC(=O)NC4CC4)o3)nc2C)CCN1C1CCN(C(=O)c2ccc(Cl)nc2N)CC1 [Compound 194] | < 25 nM
CCOC(=O)CNc1nnc(-c2cnc(N3CCN(C4CCN(Cc5ccc(F)c(F)c5COCc5ccccc5)CC4)[C@@H](CC)C3)c(C)n2)o1 [Compound 195] | 25 to 100 nM
CC[C@H]1CN(c2ncc(-c3nnc(N(CC)S(=O)(=O)c4ccc(C)cc4)o3)nc2C)C(C)CN1C1CCN(C(=O)c2ccc(Cl)cc2)CC1 (stereo partly drawn) [Compound 196] | 25 to 100 nM

More lines, now with the values ahead:

IC50 | Structure (SMILES)
< 25 nM | CCNc1nnc(-c2cnc(N3CCN(C4CCN(C(=O)c5ccc(Cl)s5)CC4)[C@@H](CC)C3)c(C)n2)o1 [Compound 149]
< 25 nM | CC[C@H]1CN(c2ncc(-c3nnc(C)o3)nc2Cl)CCN1C1CCN(C(=O)c2ccc(Cl)nc2N)CC1 [Compound 151]
25 to 100 nM | CCNc1nnc(-c2cnc(N3C[C@H](CC)N(C4CCN(C(=O)c5ccc(OC)cc5)CC4)C[C@H]3C)c(C)n2)o1 [Compound 152]
25 to 100 nM | CCNc1nnc(-c2cnc(N3CCN(C4CCN(C(=O)c5ccc(CC)nc5N)CC4)[C@@H](CC)C3)c(C)n2)o1 [Compound 153]
< 25 nM | CC[C@H]1CN(c2ncc(-c3nnc[nH]3)nc2C(F)(F)F)CCN1C1CCN(C(=O)c2ccc(Cl)cc2)CC1 [Compound 154]
< 25 nM | CCNc1nnc(-c2cnc(N3CCN(C4CCN(C(=O)c5ccc(Cl)c(C)c5)CC4)[C@@H](CC)C3)c(C)n2)o1 [Compound 155]
< 25 nM | CCNc1nnc(-c2cnc(N3CCN(C4CCN(C(=O)c5ccc(Cl)cc5C)CC4)[C@@H](CC)C3)c(C)n2)o1 [Compound 156]
< 25 nM | CCNc1nnc(-c2nc(C)c(N3CCN(C4CCN(C(=O)c5ccc(Cl)cc5)CC4)[C@@H](CC)C3)nc2C)o1 [Compound 157]
< 25 nM | CCNc1nnc(-c2cnc(N3CCN(C4CCN(C(=O)c5ccc(Cl)cc5)CC4)[C@@H](CC)C3)c(CC)n2)o1 [Compound 158]
< 25 nM | CC[C@H]1CN(c2ncc(-c3nnc(NC(C)C)o3)nc2C)CCN1C1CCN(C(=O)c2ccc(F)c(F)c2)CC1 [Compound 159]
< 25 nM | CCNc1nnc(-c2cnc(N3C[C@H](CC)N(C4CCN(C(=O)c5ccc(F)c(F)c5)CC4)C[C@H]3C)c(C)n2)o1 [Compound 160]
< 25 nM | CCNc1nnc(-c2cnc(N3CCN(C4CCN([C@@H](CO)c5ccc(Cl)cc5)CC4)[C@@H](CC)C3)c(C)n2)o1 [Compound 162]
< 25 nM | CCNc1nnc(-c2cnc(N3CCN(C4CCN([C@H](CO)c5ccc(Cl)cc5)CC4)[C@@H](CC)C3)c(C)n2)o1 [Compound 163]
< 25 nM | CCNc1nnc(-c2cnc(N3CCN(C4CCN(C(=O)c5ccc(Cl)c(F)c5)CC4)[C@@H](CC)C3)c(C)n2)o1 [Compound 164]
< 25 nM | CCNc1nnc(-c2cnc(N3CCN(C4CCN(C(=O)c5ccc(Cl)cc5F)CC4)[C@@H](CC)C3)c(C)n2)o1 [Compound 165]
< 25 nM | CCNc1nnc(-c2cnc(N3CCN(C4CCN(Cc5ccc(C(F)(F)F)cc5)CC4)[C@@H](CC)C3)c(C)n2)o1 [Compound 166]
< 25 nM | CCNc1nnc(-c2cnc(N3CCN(C4CCN(CCC(=O)c5ccc(Cl)cc5)CC4)[C@@H](CC)C3)c(C)n2)o1 [Compound 169]
< 25 nM | CC[C@H]1CN(c2ncc(-c3nnc(NC(C)C)o3)nc2C)CCN1C1CCN(C(=O)c2ccc(Cl)nc2N)CC1 [Compound 171]
< 25 nM | CCNc1nnc(-c2cnc(N3CCN(C4CCN(C(=O)c5ccc(Cl)nc5N)CC4)[C@@H](CC)C3)c(CC)n2)o1 [Compound 173]
< 25 nM | CCNc1nnc(-c2cnc(N3CCN(C4CCN(C(=O)c5ccc(C(F)(F)F)cc5)CC4)[C@@H](CC)C3)c(C)n2)o1 [Compound 176]
< 25 nM | CC[C@H]1CN(c2ncc(-c3nnc(NC4(C)CC4)o3)nc2C)[C@H](C)CN1C1CCN(C(=O)c2ccc(Cl)cc2)CC1 [Compound 180]
25 to 100 nM | CCNc1nnc(-c2cnc(N3CCN(C4CCN(C(=O)c5ccc(Cl)nc5N)CC4)[C@@H](CC)C3)c(C3CC3)n2)o1 [Compound 181]
< 25 nM | CCNc1nnc(-c2cnc(N3CCN(C4CCN(C(C(=O)OC)c5ccc(Cl)cc5)CC4)[C@@H](CC)C3)c(C)n2)o1 (stereo partly drawn) [Compound 182]
< 25 nM | CCNc1nnc(-c2cnc(N3CCN(C4CCN(C(=O)c5ccc(C(F)(F)F)cc5N)CC4)[C@@H](CC)C3)c(C)n2)o1 [Compound 183]
< 25 nM | CCNc1nnc(-c2cnc(N3CCN(C4CCN(C(=O)c5ccc(C(F)(F)F)nc5N)CC4)[C@@H](CC)C3)c(C)n2)o1 [Compound 184]
< 25 nM | CCNc1nnc(-c2cnc(N3CCN(C4CCN(C(=O)c5cc(F)c(Cl)cc5F)CC4)[C@@H](CC)C3)c(Cl)n2)o1 [Compound 187]
< 25 nM | CCNc1nnc(-c2cnc(N3C[C@H](CC)N(C4CCN(C(=O)c5ccc(Cl)cc5)CC4)C[C@H]3C)c(C(F)(F)F)n2)o1 [Compound 191]
